Measured values reported in US20040191169A1, “Methods of protection from toxicity of alpha emitting elements during radioimmunotherapy” (priority 2003, published 2004).

Experiments:
[1] = Competitive metal blockade with bismuth subnitrate: renal ^213Bi and ^221Fr activity after ^225Ac labeled HuM195 injection; assay type: in vivo, mice
Description: (§1) The mice were anesthetized and then injected intravenously in the retro-orbital venous plexus with 0.5 μCi of either ^225Ac labeled HuM195 for chelation, diuresis and competitive metal blockade experiments or of ^225Ac labeled SJ25C1 for tumor burden experiments. The injected volume was 100 μl. In order to detect adequate numbers of disintegrations in tissues by use of the gamma-counter, the injected doses of ^225Ac nanogenerator, i.e., ˜30 μCi/kg, are much higher than the doses for human clinical trials with these adjuvants.
Mice (5 per group) were injected i.p. with 200 μl of 1% bismuth subnitrate (BSN; Sigma, St. Louis, Mo.) suspension (100 mg/kg) or an equal volume of saline (controls) 4 hours before ^225Ac nanogenerator injection. These animals were sacrificed at 6 hours post-injection with the ^225Ac nanogenerator. Alternatively, mice were injected i.p. with 200 μl of 1% BSN suspension, 4 hours before and 8 and 20 hours after ^225Ac nanogenerator injection (n=5) or an equal volume of saline (n=5). These animals were sacrificed 24 hours after ^225Ac nanogenerator injection. The mean % ID/g of ^225Ac, ^221Fr and ^213Bi in blood and kidneys at sacrifice-time was calculated for each experimental group.

[2] = Diuretic therapy, alone or combined with DMPS: renal ^221Fr and ^213Bi activity after ^225Ac labeled HuM195 injection; assay type: in vivo, mice; details: diuretic alone i.p.; 24 hours post-injection
Description: as §1
Mice were randomized to furosemide treatment, chlorthiazide (CTZ) treatment or no treatment(control)groups (5 animals per group). Furosemide and CTZ were administered intraperitoneally (i.p.). The loading doses of furosemide and CTZ were 250 mg/kg and 750 mg/kg respectively, administered one hour before ^225Ac nanogeneratorinjection. The maintenance doses were 100 mg/kg and 300 mg/kg, respectively, administered 12 hours and 24 hours after the loading dose. The controls were injected with an equal volume of saline (vehicle).
Alternatively, mice received DMPS (1.2 mg/ml in drinking water) and either furosemide or CTZ i.p using the same dose schedule as above. The controls received regular drinking water and were injected with an equal volume of saline. The animals were sacrificed at 24 hours post-injection with the labeled antibody and the mean activity (% ID/g) of ^225Ac, ^221Fr and ^213Bi in blood and kidneys was calculated for each experimental group, as described above.

[3] = Tumor burden experiment: ^213Bi activity in kidneys and femurs after ^225Ac labeled SJ25C1, disseminated human Daudi lymphoma; assay type: in vivo, SCID mice
Description: Disseminated human Daudi lymphoma (84) treated with ^225Ac labeled anti-CD19, was used as the model system. SCID mice, 10-12 weeks old, were randomized to “low tumor burden” or 7 days growth of tumor, “high tumor burden” or 30 days growth of tumor or “high tumor burden+DMPS” group or 30 days growth of tumor and treated with 1.2 mg/ml DMPS in drinking water, starting one day before injection with ^225Ac nanogenerator. All mice were injected intravenously with 5×10^6 Daudi lymphoma cells in 0.1 ml phosphate buffered saline (PBS). The “low burden” animals were injected with the tumor cells 23 days after the “high burden” ones. The animals were checked daily for the onset of hind-leg paralysis. 30 days after injection of tumor cells in the “high burden” animals and 7 days after injection for the “low burden” group, all animals were injected retro-orbitally with 0.5 μCi of ^225Ac labeled SJ25C1 in 100 μl.
The animals (5 per group) were sacrificed at 24 hours post-injection and the mean ^225Ac, ^221Fr and ^213Bi activity (% ID/g) in blood, femurs and kidneys was calculated for each experimental group. The % of human-CD20 positive cells in the femoral bone marrow was estimated in one representative animal from the “high and low burden” groups by flow cytometric staining with phycoerythrin (PE)-conjugated anti-human CD20 (BD, San Jose, Calif.) and compared to that of a non tumor-bearing mouse of the same strain.

[4] = cited from earlier work
[5] = Free metal scavenging with DMPS or DMSA: tissue ^213Bi and ^221Fr activity after ^225Ac labeled HuM195 injection; assay type: in vivo, mice; details: for renal ^213Bi activity: chelator in drinking water, mean (SE); for renal ^221Fr activity versus untreated controls: at either 6 hours or 72 hours post-injection
Description: as §1
Animals received either 2,3-dimercapto-1-propanesulfonic acid (DMPS; Sigma, St. Louis, Mo.) or meso-2,3-dimercaptosuccinic acid (DMSA; Sigma, St. Louis, Mo.) in drinking water (1.2 mg/ml and 1.5 mg/ml, respectively), starting one day before injection with ^225Ac nanogenerator and continued until the animals were sacrificed. The control animals received regular drinking water. Animals (n=5 per group) were sacrificed at 6 and 72 hours post-injection by carbon-dioxide asphyxiation.
Samples of blood taken by cardiac puncture, of kidneys, of liver and of small intestine were removed. The organs were washed in distilled water, blotted dry on gauze, weighed, and the activity of ^221Fr (185-250 keV window) and ^213Bi (360-480 keV window) was measured using a gamma counter (COBRA II, Packard Instrument Company, Meriden, Conn.). Samples of the injectate (100 μl) were used as decay correction standards. Adjustment was made for the small percentage of bismuth activity that counted in the francium activity window. Percentage injected dose of ^225Ac, ^221Fr and ^213Bi per gram of tissue weight (% ID/g) was calculated for each animal at the time of sacrifice, using the equation (78):
A2(0)=[A2−A2(eq)·(e^−λ2t−e^−λ1t)]·e^λ2t
where λ1 and λ2 are the decay constants of Ac and Bi, respectively. The mean % ID/g was determined for each experimental group.

[6] = In vivo biodistribution of [Ac]Hum195 at 24 hours in DMPS-treated and untreated monkeys; set-up: species or system cynomolgus monkeys; details: one treated versus one untreated monkey, DMPS in water 24 hours plus one i.v. dose 90 min before sacrifice
Description: Two cynomolgus monkeys weighing about 7 kg were injected with 25 μCi of Ac-225 nanogenerators on HuM195 antibodies. One monkey received water and the other received DMPS in water for 24 hours and one dose of DMPS intravenously 90 min before sacrifice. At 24 hours the two monkeys were sacrificed and the kidneys examined for Bi-213 daughters. A 70% reduction in Bi-213 in the kidneys of the treated monkey was found (FIG. 7).

CD33 antigen = CD33 antigen (Homo sapiens, UniProt P20138); details: on the order of; cited from earlier work
CD33 antigen, sequence (P20138 18-364): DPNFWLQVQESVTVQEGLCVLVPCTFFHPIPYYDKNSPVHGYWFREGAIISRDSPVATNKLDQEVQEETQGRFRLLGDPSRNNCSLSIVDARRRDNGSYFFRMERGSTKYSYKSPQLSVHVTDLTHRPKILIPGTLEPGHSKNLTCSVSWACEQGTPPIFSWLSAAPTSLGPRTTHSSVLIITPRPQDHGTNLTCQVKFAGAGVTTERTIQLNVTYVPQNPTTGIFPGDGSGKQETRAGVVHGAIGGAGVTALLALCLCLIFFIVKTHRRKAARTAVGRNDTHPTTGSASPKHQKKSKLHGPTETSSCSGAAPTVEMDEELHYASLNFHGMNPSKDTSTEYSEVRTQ

| Molecule | 24 hour renal ^213Bi activity [2] | 24 hour renal ^221Fr activity [2] | extent of non-protein sulfhydryl formation in human plasma [4] | mean blood ^213Bi activity ([5]; 6 hours post-injection) | renal ^213Bi activity ([5]; 6 hours post-injection) | mean blood ^213Bi activity ([5]; 72 hours post-injection) | renal ^213Bi activity ([5]; 72 hours post-injection) | renal ^221Fr activity versus untreated controls [5] | also measured |
| --- | --- | --- | --- | --- | --- | --- | --- | --- | --- |
| O=[N+]([O-])[O-].O=[N+]([O-])[O-].O=[N+]([O-])[O-].O=[N+]([O-])[O-].[Bi+3].[Bi+3].[Bi+3].[Bi+3].[Bi+3].[O-2].[OH-].[OH-].[OH-].[OH-].[OH-].[OH-].[OH-].[OH-].[OH-] [BSN, bismuth subnitrate] | – | – | – | – | – | – | – | – | renal ^213Bi activity ([1]; 6 hours post-injection, BSN 100 mg/kg i.p. 4 hours before): 46.1±1.4 % ID/g; renal ^213Bi activity ([1]; 24 hours post-injection, BSN i.p. 4 hours before and 8 and 20 hours after): 48.2±0.6 % ID/g; renal ^221Fr activity ([1]; at either time-point (6 hours, 24 hours)): unaltered |
| NS(=O)(=O)c1cc2c(cc1Cl)N=CNS2(=O)=O [CTZ, chlorthiazide] | 18.6±1.6 % ID/g | 9.7±0.4 % ID/g | – | – | – | – | – | – | – |
| O=S(=O)(O)CC(S)CS (stereo not shown) [DMPS, 2,3-dimercapto-1-propanesulfonic acid] | – | – | 37% | 9.2±0.5 % ID/g | 38.6±5.5 % ID/g | 5.5±0.1 % ID/g | 21.7±2.1 % ID/g | not significantly different | kidney to femur activity ratio for ^213Bi ([3]; DMPS treated animals bearing the target tumor): significantly lower; renal ^213Bi activity ([3]; high tumor burden + DMPS 1.2 mg/ml in drinking water, 24 hours post-injection): 16.7±2.7 % ID/g; femur ^213Bi activity ([3]; high tumor burden + DMPS, 24 hours post-injection): 4.8±0.6 % ID/g; relative effectiveness in reducing the renal ^213Bi activity ([5]; comparison between chelators): significantly more effective than DMSA; reduction in Bi-213 in the kidneys [6]: 70% |
| O=C(O)[C@@H](S)[C@@H](S)C(=O)O [DMSA, meso-2,3-dimercaptosuccinic acid] | – | – | 8% | 5.8±0.5 % ID/g | 66.0±1.9 % ID/g | 4.8±0.6 % ID/g | 41.4±7.3 % ID/g | not significantly different | – |
| NS(=O)(=O)c1cc(C(=O)O)c(NCc2ccco2)cc1Cl [furosemide] | 18.3±0.6 % ID/g | 11.8±0.4 % ID/g | – | – | – | – | – | – | – |
| HuM195: humanized anti-CD33 IgG1 monoclonal antibody | – | – | – | – | – | – | – | – | affinity (CD33 antigen): 10^−9 to 10^−10 M |
